Reference: patent US9695155B2, “Herbicidal substituted pyrimidinyloxy benzene compounds” (E. I. DU PONT DE NEMOURS AND COMPANY, priority 2013, dated 2017)

Tests used:
giant foxtail [1] = experiment: Test A postemergence; type: in vivo, Setaria faberii; conditions: Setaria faberi, post-emergence, 240 h, 0 to 100 scale where 0 is no effect and 100 is complete control
In short: (§1)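 Pre- and postemergence greenhouse screen. Soil: loam + sand. Spray carrier: solvent mixture, non-phytotoxic, with surfactant. Post timing at 1–2 leaves, height 2–10 cm. Readout: visual injury on a 0–100 scale roughly 10 days after application, untreated plants as reference.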

pigweed [2] = experiment: Test A postemergence; type: in vivo, Amaranthus retroflexus; conditions: Amaranthus retroflexus, post-emergence, 0 to 100 scale where 0 is no effect and 100 is complete control
In short: as §1

corn [3] = experiment: Test A postemergence; type: in vivo, Zea mays; conditions: Zea mays, post-emergence, 240 h, 0 to 100 scale where 0 is no effect and 100 is complete control
In short: as §1

galium = experiment: Test C preemergence; type: in vivo, Galium aparine; conditions: Galium, pre-emergence
In short: (§2)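 Whole-plant greenhouse test with surfactant-containing solvent formulation, applied preemergence to sown loam–sand pots or postemergence to 2–18 cm plants. Scored by eye 13 to 15 days on, 0–100 scale.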

corn [4] = experiment: Test C preemergence; type: in vivo, Zea mays; conditions: Zea mays, pre-emergence
In short: as §2

lambsquarters [5] = experiment: Test C preemergence; type: in vivo, Chenopodium album; conditions: Chenopodium album, pre-emergence
In short: as §2

morningglory [6] = experiment: Test C preemergence; type: in vivo, Ipomoea coccinea; conditions: Ipomoea, pre-emergence
In short: as §2

ragweed [7] = experiment: Test C preemergence; type: in vivo, Ambrosia elatior; conditions: Ambrosia artemisiifolia, pre-emergence
In short: as §2

velvetleaf = experiment: Test C preemergence; type: in vivo, Abutilon theophrasti; conditions: Abutilon theophrasti, pre-emergence
In short: as §2

large (Lg) crabgrass = experiment: Test C postemergence; type: in vivo, Digitaria sanguinalis; conditions: Digitaria sanguinalis, post-emergence
In short: as §2

giant foxtail [8] = experiment: Test C postemergence; type: in vivo, Setaria faberii; conditions: Setaria faberi, post-emergence
In short: as §2

lambsquarters [9] = experiment: Test C postemergence; type: in vivo, Chenopodium album; conditions: Chenopodium album, post-emergence
In short: as §2

morningglory [10] = experiment: Test C postemergence; type: in vivo, Ipomoea coccinea; conditions: Ipomoea, post-emergence
In short: as §2

pigweed [11] = experiment: Test C postemergence; type: in vivo, Amaranthus retroflexus; conditions: Amaranthus retroflexus, post-emergence
In short: as §2

ragweed [12] = experiment: Test C postemergence; type: in vivo, Ambrosia elatior; conditions: Ambrosia artemisiifolia, post-emergence
In short: as §2

soybean = experiment: Test C postemergence; type: in vivo, Glycine max; conditions: Glycine max, post-emergence
In short: as §2

waterhemp = experiment: Test C postemergence; type: in vivo, Amaranthus rudis; conditions: Amaranthus tuberculatus, post-emergence
In short: as §2

FC(F)(F)Sc1cnn(-c2ccccc2Oc2ncc(Cl)cn2)c1 [Compound 132, 5-chloro-2-[2-[4-(trifluoromethylthio)-1H-pyrazol-1-yl]phenoxy]pyrimidine]
75%: pest or weed control at 16 g/ha (lambsquarters [5]; 16 g ai/ha, preemergence, scale 0 to 100 (0 no effect, 100 complete control), read-out: Lambsquarters plant response rating) | pest or weed control at 16 g/ha (velvetleaf; 16 g ai/ha, preemergence, scale 0 to 100 (0 no effect, 100 complete control), read-out: Velvetleaf plant response rating) | pest or weed control at 62 g/ha (morningglory [10]; Postemergence, 62 g ai/ha, scale 0 to 100 (0 no effect, 100 complete control), read-out: Plant response rating, Morningglory) | pest or weed control at 62 g/ha (pigweed [11]; Postemergence, 62 g ai/ha, scale 0 to 100 (0 no effect, 100 complete control), read-out: Plant response rating, Pigweed) | pest or weed control at 125 g/ha (waterhemp; 125 g ai/ha, postemergence, visual rating, scale 0 to 100 (0 no effect, 100 complete control), read-out: Plant response rating, Waterhemp)
25%: pest or weed control at 16 g/ha (morningglory [6]; 16 g ai/ha, preemergence, scale 0 to 100 (0 no effect, 100 complete control), read-out: Morningglory plant response rating) | pest or weed control at 16 g/ha (pigweed [11]; 16 g ai/ha, postemergence, 0 is no effect, 100 is complete control, read-out: Plant response rating (0 to 100), Pigweed)
5%: pest or weed control at 62 g/ha (morningglory [6]; 62 g ai/ha, preemergence, scale 0 (no effect) to 100 (complete control), read-out: Morningglory plant response rating) | pest or weed control at 125 g/ha (morningglory [6]; 125 g ai/ha, preemergence, scale 0 (no effect) to 100 (complete control), read-out: Morningglory plant response rating) | pest or weed control at 16 g/ha (large (Lg) crabgrass; 16 g ai/ha, postemergence, 0 is no effect, 100 is complete control, read-out: Plant response rating (0 to 100), Crabgrass, Large) | pest or weed control at 62 g/ha (large (Lg) crabgrass; Postemergence, 62 g ai/ha, scale 0 to 100 (0 no effect, 100 complete control), read-out: Plant response rating, Crabgrass, Large) | pest or weed control at 62 g/ha (giant foxtail [8]; Postemergence, 62 g ai/ha, scale 0 to 100 (0 no effect, 100 complete control), read-out: Plant response rating, Foxtail, Giant)
50%: Corn plant response rating (crop injury, 0 = no effect, 100 = complete kill) at 500 g/ha (corn [3]; 500 g ai/ha) | pest or weed control at 125 g/ha (lambsquarters [9]; 125 g ai/ha, postemergence, visual rating, scale 0 to 100 (0 no effect, 100 complete control), read-out: Plant response rating, Lambsquarters) | Soybean plant response rating (crop injury, 0-100 scale) at 125 g/ha (soybean; 125 g ai/ha, postemergence, visual rating, scale 0 to 100 (0 no effect, 100 complete control), read-out: Plant response rating, Soybean)
30%: pest or weed control at 125 g/ha (ragweed [7]; 125 g ai/ha, preemergence, scale 0 (no effect) to 100 (complete control), read-out: Ragweed plant response rating)
80%: pest or weed control at 125 g/ha (pigweed [11]; 125 g ai/ha, postemergence, visual rating, scale 0 to 100 (0 no effect, 100 complete control), read-out: Plant response rating, Pigweed)
10%: Corn plant response rating (crop injury, 0 = no effect, 100 = complete kill) at 31 g/ha (corn [4]; Preemergence, 31 g ai/ha, scale 0 to 100, 0 no effect, 100 complete control) | pest or weed control at 16 g/ha (ragweed [7]; 16 g ai/ha, preemergence, scale 0 to 100 (0 no effect, 100 complete control), read-out: Ragweed plant response rating) | pest or weed control at 31 g/ha (ragweed [7]; Preemergence, 31 g ai/ha, scale 0 to 100, 0 no effect, 100 complete control, read-out: Plant response rating, Ragweed) | pest or weed control at 125 g/ha (large (Lg) crabgrass; 125 g ai/ha, postemergence, visual rating, scale 0 to 100 (0 no effect, 100 complete control), read-out: Plant response rating, Crabgrass, Large) | pest or weed control at 125 g/ha (giant foxtail [8]; 125 g ai/ha, postemergence, visual rating, scale 0 to 100 (0 no effect, 100 complete control), read-out: Plant response rating, Foxtail, Giant) | pest or weed control at 16 g/ha (lambsquarters [9]; 16 g ai/ha, postemergence, 0 is no effect, 100 is complete control, read-out: Plant response rating (0 to 100), Lambsquarters) | pest or weed control at 16 g/ha (morningglory [10]; 16 g ai/ha, postemergence, 0 is no effect, 100 is complete control, read-out: Plant response rating (0 to 100), Morningglory) | pest or weed control at 62 g/ha (ragweed [12]; Postemergence, 62 g ai/ha, scale 0 to 100 (0 no effect, 100 complete control), read-out: Plant response rating, Ragweed)
100%: pest or weed control at 500 g/ha (pigweed [2]; 500 g ai/ha, read-out: Plant response rating, Pigweed) | pest or weed control at 125 g/ha (pigweed [2]; 240 h, 125 g ai/ha, read-out: Pigweed plant response rating) | pest or weed control at 62 g/ha (lambsquarters [5]; 62 g ai/ha, preemergence, scale 0 (no effect) to 100 (complete control), read-out: Lambsquarters plant response rating) | pest or weed control at 125 g/ha (lambsquarters [5]; 125 g ai/ha, preemergence, scale 0 (no effect) to 100 (complete control), read-out: Lambsquarters plant response rating) | pest or weed control at 62 g/ha (velvetleaf; 62 g ai/ha, preemergence, scale 0 (no effect) to 100 (complete control), read-out: Velvetleaf plant response rating) | pest or weed control at 125 g/ha (velvetleaf; 125 g ai/ha, preemergence, scale 0 (no effect) to 100 (complete control), read-out: Velvetleaf plant response rating)
40%: pest or weed control at 62 g/ha (ragweed [7]; 62 g ai/ha, preemergence, scale 0 (no effect) to 100 (complete control), read-out: Ragweed plant response rating)
45%: pest or weed control at 16 g/ha (waterhemp; 16 g ai/ha, postemergence, 0 is no effect, 100 is complete control, read-out: Plant response rating (0 to 100), Waterhemp)
35%: plant injury at 125 g/ha (corn [4]; 125 g ai/ha, preemergence, scale 0 (no effect) to 100 (complete control), read-out: Corn plant response rating) | pest or weed control at 125 g/ha (ragweed [12]; 125 g ai/ha, postemergence, visual rating, scale 0 to 100 (0 no effect, 100 complete control), read-out: Plant response rating, Ragweed) | Soybean plant response rating (crop injury, 0-100 scale) at 62 g/ha (soybean; Postemergence, 62 g ai/ha, scale 0 to 100 (0 no effect, 100 complete control))
20%: plant injury at 125 g/ha (corn [3]; 125 g ai/ha, read-out: Corn plant response rating) | plant injury at 62 g/ha (corn [4]; 62 g ai/ha, preemergence, scale 0 (no effect) to 100 (complete control), read-out: Corn plant response rating) | Soybean plant response rating (crop injury, 0-100 scale) at 16 g/ha (soybean; 16 g ai/ha, postemergence, 0 is no effect, 100 is complete control)
65%: pest or weed control at 125 g/ha (morningglory [10]; 125 g ai/ha, postemergence, visual rating, scale 0 to 100 (0 no effect, 100 complete control), read-out: Plant response rating, Morningglory) | pest or weed control at 62 g/ha (waterhemp; Postemergence, 62 g ai/ha, scale 0 to 100 (0 no effect, 100 complete control), read-out: Plant response rating, Waterhemp)
90%: pest or weed control at 500 g/ha (giant foxtail [1]; 500 g ai/ha, read-out: Plant response rating, Foxtail, Giant) | pest or weed control at 62 g/ha (galium; 62 g ai/ha, preemergence, scale 0 (no effect) to 100 (complete control), read-out: Galium plant response rating) | pest or weed control at 125 g/ha (galium; 125 g ai/ha, preemergence, scale 0 (no effect) to 100 (complete control), read-out: Galium plant response rating)
0%: pest or weed control at 16 g/ha (galium; 16 g ai/ha, preemergence, scale 0 to 100 (0 no effect, 100 complete control), read-out: Galium plant response rating) | pest or weed control at 31 g/ha (galium; Preemergence, 31 g ai/ha, scale 0 to 100, 0 no effect, 100 complete control, read-out: Plant response rating, Galium) | plant injury at 16 g/ha (corn [4]; 16 g ai/ha, preemergence, scale 0 to 100 (0 no effect, 100 complete control), read-out: Corn plant response rating) | pest or weed control at 31 g/ha (morningglory [6]; Preemergence, 31 g ai/ha, scale 0 to 100, 0 no effect, 100 complete control, read-out: Plant response rating, Morningglory) | pest or weed control at 16 g/ha (giant foxtail [8]; 16 g ai/ha, postemergence, 0 is no effect, 100 is complete control, read-out: Plant response rating (0 to 100), Foxtail, Giant) | pest or weed control at 16 g/ha (ragweed [12]; 16 g ai/ha, postemergence, 0 is no effect, 100 is complete control, read-out: Plant response rating (0 to 100), Ragweed)
85%: pest or weed control at 31 g/ha (velvetleaf; Preemergence, 31 g ai/ha, scale 0 to 100, 0 no effect, 100 complete control, read-out: Plant response rating, Velvetleaf)
60%: pest or weed control at 125 g/ha (giant foxtail [1]; 125 g ai/ha, read-out: Foxtail, Giant plant response rating) | pest or weed control at 62 g/ha (lambsquarters [9]; Postemergence, 62 g ai/ha, scale 0 to 100 (0 no effect, 100 complete control), read-out: Plant response rating, Lambsquarters)
55%: pest or weed control at 31 g/ha (lambsquarters [5]; Preemergence, 31 g ai/ha, scale 0 to 100, 0 no effect, 100 complete control, read-out: Plant response rating, Lambsquarters)
